Here are results for 13 compounds from patent US20260234140A1, “PYRIDOPYRIMIDINE DERIVATIVE AND USE THEREOF” (SUNSHINE LAKE PHARMA CO., LTD., priority 2023, published 2026).

As usually defined, the EC50 is the concentration that produces a half-maximal response. As a reminder, the Emax is the maximal effect, on the per cent scale that the assay sets.

SMILES strings stand for the structures.

The test has as its system PD1/PD-L1 pathway. Briefly: PD1/PD-L1 Blockade Bioassay, inhibition of the PD1/PD-L1 pathway at the cellular level (luciferase reporter, PD-1 Jukat T cells co-cultured with PD-L1 aAPC/CHO-K1 cells). The settings on record: T-cell; for EC50: PD-1 Jukat T cells + PD-L1 aAPC/CHO-K1 cells, 6 h co-culture, ONE-Glo luciferase readout; for Emax: maximum % Activity relative to atezolizumab (set to 100%). In kind it is cell-based. The procedure:
Experiment 1: Detecting the Inhibitory Activity of Compounds on the PD1/PD-L1 Pathway at the Cellular Level Using the PD1/PD-L1 Blockade Bioassay Method
PD-1 Jukat T cells were revived and cultured with 1640 medium containing 100 μg/mL Hygromycin B, […] Puromycin, 10% FBS and 1% dual antibody; PD-L1 aAPC/CHO-K1 cells were revived and cultured with F12K medium containing 100 μg/mL Hygromycin B, 200 μg/mL G418, 10% FBS and 1% dual antibody.
The revived cells need to be passaged 2-3 times. When the cells enter the exponential growth phase with good growth status, the PD-L1 aAPC/CHO-K1 was digested with trypsin, and the cells were resuspended in F12K containing 5% FBS and adjusted to a density of 5×10^5 cells/mL. 20 μl/well were plated in a 384-well plate (10,000 cells/well) and incubated in an incubator overnight for 16-20 h.
a Preparation of compound stock solution: Dissolve the compound to be tested in DMSO to prepare a 20 mM stock solution.
b Compound gradient dilution: dilute the compound in 1640 medium containing 5% FBS without antibiotics or phenol red, and make 3-fold gradient dilutions to prepare 10 concentration gradients (2×).
c Adding drugs: Take out the cell culture plate, discard the supernatant, add 20 μl/well of the prepared compound, and incubate in the incubator for 1.5 h.
PD-1 Jukat T cells were collected, washed once with PBS, and resuspended in 1640 medium containing 5% FBS without antibiotics or phenol red. The density was adjusted to 1×10^6 cells/mL. 20 μl PD-1 Jukat T cells (20,000 cells/well) were added to each well and incubated in the incubator for 6 h.
ONE-Glo™ Luciferase Assay reagent was thawed to room temperature in advance and then added to a 384-well plate at 40 µl/well. Incubate in the dark for 15 minutes and read the […] signal on a plate reader.
[formula] • Among them, % Activity: % Activity • RLU: Resulting Luminescence unit • RLUvehicle: Average RLU value of negative control wells on each plate • RLUpositive: Average RLU value of positive control wells on each plate • Vehicle control: DMSO (0.1%) corresponding to the test value was used as negative control (its % Activity was 0%); • Positive control: The highest detection value at the atezolizumab administration concentration was used as the positive control (its % Activity was 100%). • (2) EC50 value calculation method: The EC50 value was obtained by the nonlinear fitting formula of Graph Pad Prism 8.0 software. The calculation formula is as follows:
Y=Bottom+(Top−Bottom)/(1+10^((Log EC50−X)×HillSlope)) • X: log of activator concentration (logarithm of compound concentration); Y: % Activity • (3) Emax definition: The maximum % Activity value corresponding to the maximum activation value of the compound relative to atezolizumab (the activation value is set to 100%).
A general note: Reporter assays use an easily measured gene product as a stand-in for the process of interest.

Consider `COc1nc(-c2cccc(-c3cccc(Nc4nc(C(F)F)nc5cc(CN6CCC(O)CC6)cnc45)c3C)c2Cl)cnc1CN(C)[C@H]1CC[C@H](C(=O)O)CC1` [Example 21, (1r,4r)-4-(((5-(2-chloro-3′-((2-(difluoromethyl)-7-((4-hydroxypiperidin-1-yl)methyl)pyrido[3,2-d]pyrimidin-4-yl)amino)-2′-methyl-[1,1′-biphenyl]-3-yl)-3-methoxypyrazin-2-yl)methyl)(methyl)amino)cyclohexane-1-carboxylic acid], for which the EC50 came to 0.105 µM and the Emax came to 65%.

As for `COc1nc(-c2cccc(-c3cccc(Nc4nc(C(F)F)nc5cc(CN6CC[C@H](CO)C6)cnc45)c3C)c2Cl)cnc1CN(C)[C@H]1CC[C@H](C(=O)O)CC1` [Example 28, (1r,4r)-4-(((5-(2-chloro-3′-((2-(difluoromethyl)-7-(((S)-3-(hydroxymethyl)pyrrolidin-1-yl)methyl)pyrido[3,2-d]pyrimidin-4-yl)amino)-2′-methyl-[1,1′-biphenyl]-3-yl)-3-methoxypyrazin-2-yl)methyl)(methyl)amino)cyclohexane-1-carboxylic acid], the EC50 stood at 0.0495 µM and the maximal effect (Emax) is 95%.

Consider `[2H]C([2H])([2H])N(Cc1ncc(-c2cccc(-c3cccc(Nc4nc(C(F)F)nc5cc(CN6CC[C@@H](O)C6)cnc45)c3C)c2Cl)nc1OC)[C@H]1CC[C@H](C(=O)O)CC1` [Example 32, (1r,4r)-4-(((5-(2-chloro-3′-((2-(difluoromethyl)-7-(((R)-3-hydroxypyrrolidin-1-yl)methyl)pyrido[3,2-d]pyrimidin-4-yl)amino)-2′-methyl-[1,1′-biphenyl]-3-yl)-3-methoxypyrazin-2-yl)methyl)(methyl-d3)amino)cyclohexane-1-carboxylic acid], for which the EC50 turned out to be 0.0763 µM and the Emax worked out at 84.1%.

As for `COc1nc(-c2cccc(-c3cccc(Nc4nc(C(F)F)nc5cc(CN6CC[C@@H](OC(F)F)C6)cnc45)c3C)c2Cl)cnc1CN(C)[C@H]1CC[C@H](C(=O)O)CC1` [Example 42, (1r,4r)-4-(((5-(2-chloro-3′-((7-(((R)-3-(difluoromethoxy)pyrrolidin-1-yl)methyl)-2-(difluoromethyl)pyrido[3,2-d]pyrimidin-4-yl)amino)-2′-methyl-[1,1′-biphenyl]-3-yl)-3-methoxypyrazin-2-yl)methyl)(methyl)amino)cyclohexane-1-carboxylic acid], the EC50 came out at 0.0909 µM and the Emax was 74%.

For `COc1nc(-c2cccc(-c3cccc(Nc4nc(C(F)F)nc5cc(CN6CC[C@@H](O)C6)cnc45)c3C)c2Cl)ccc1CNC12CCC(C(=O)O)(CC1)C2` [Example 9, (R)-4-(((6-(2-chloro-3′-((2-(difluoromethyl)-7-((3-hydroxypyrrolidin-1-yl)methyl)pyrido[3,2-d]pyrimidin-4-yl)amino)-2′-methyl-[1,1′-biphenyl]-3-yl)-2-methoxypyridin-3-yl)methyl)amino)bicyclo[2.2.1]heptane-1-carboxylic acid], the EC50 came out at 0.0907 µM and the Emax stood at 117%.

As for `COc1nc(-c2cccc(-c3cccc(Nc4nc(C(F)F)nc5cc(CN6CC[C@@H](O)C6)cnc45)c3C)c2Cl)ccc1CN[C@H]1CC[C@H](C(=O)O)CC1` [Example 2, (1r,4r)-4-(((6-(2-chloro-3′-((2-(difluoromethyl)-7-(((R)-3-hydroxypyrrolidin-1-yl)methyl)pyrido[3,2-d]pyrimidin-4-yl)amino)-2′-methyl-[1,1′-biphenyl]-3-yl)-2-methoxypyridin-3-yl)methyl)amino)cyclohexane-1-carboxylic acid], the EC50 came out at 0.0983 µM and the Emax is 118%.

`COc1nc(-c2cccc(-c3cccc(Nc4nc(C(F)F)nc5cc(CN6CC[C@@H](O)C6)cnc45)c3C)c2Cl)cnc1CN(C)[C@H]1CC[C@H](C(=O)O)C1` [Example 52, (1S,3S)-3-(((5-(2-chloro-3′-((2-(difluoromethyl)-7-(((R)-3-hydroxypyrrolidin-1-yl)methyl)pyrido[3,2-d]pyrimidin-4-yl)amino)-2′-methyl-[1,1′-biphenyl]-3-yl)-3-methoxypyrazin-2-yl)methyl)(methyl)amino)cyclopentane-1-carboxylic acid]: the EC50 was 0.0758 µM and the Emax is 74.3%.

For `COc1nc(-c2cccc(-c3cccc(Nc4nc(C(F)F)nc5cc(CN6CC(C)(O)C6)cnc45)c3C)c2Cl)cnc1CN(C)[C@H]1CC[C@H](C(=O)O)CC1` [Example 19, (1r,4r)-4-(((5-(2-chloro-3′-((2-(difluoromethyl)-7-((3-hydroxy-3-methylazetidin-1-yl)methyl)pyrido[3,2-d]pyrimidin-4-yl)amino)-2′-methyl-[1,1′-biphenyl]-3-yl)-3-methoxypyrazin-2-yl)methyl)(methyl)amino)cyclohexane-1-carboxylic acid], the EC50 came out at 0.0432 µM and the Emax came out at 80%.

Take `COc1nc(-c2cccc(-c3cccc(Nc4nc(C(F)F)nc5cc(CN6CC[C@](C)(O)C6)cnc45)c3C)c2Cl)cnc1CN(C)[C@H]1CC[C@H](C(=O)O)CC1` [Example 46, (1r,4r)-4-(((5-(2-chloro-3′-((2-(difluoromethyl)-7-(((S)-3-hydroxy-3-methylpyrrolidin-1-yl)methyl)pyrido[3,2-d]pyrimidin-4-yl)amino)-2′-methyl-[1,1′-biphenyl]-3-yl)-3-methoxypyrazin-2-yl)methyl)(methyl)amino)cyclohexane-1-carboxylic acid]: the EC50 was found to be 0.0607 µM and the Emax came to 86.7%.

On to `COc1nc(-c2cccc(-c3cccc(Nc4nc(C(F)F)nc5cc(CN6CC[C@@H](O)C6)cnc45)c3C)c2Cl)cnc1CN1CCC(C(=O)O)CC1` [Example 15, (R)-1-((5-(2-chloro-3′-((2-(difluoromethyl)-7-((3-hydroxypyrrolidin-1-yl)methyl)pyrido[3,2-d]pyrimidin-4-yl)amino)-2′-methyl-[1,1′-biphenyl]-3-yl)-3-methoxypyrazin-2-yl)methyl)piperidine-4-carboxylic acid], for which the EC50 amounted to 0.0418 µM and the Emax amounted to 97%.

Regarding `COc1nc(-c2cccc(-c3cccc(Nc4nc(C(F)F)nc5cc(CN6CC[C@@H](O)C6)cnc45)c3C)c2C)cnc1CN(C)[C@H]1CC[C@H](C(=O)O)CC1` [Example 27, (1r,4r)-4-(((5-(3′-((2-(difluoromethyl)-7-(((R)-3-hydroxypyrrolidin-1-yl)methyl)pyrido[3,2-d]pyrimidin-4-yl)amino)-2,2′-dimethyl-[1,1′-biphenyl]-3-yl)-3-methoxypyrazin-2-yl)methyl)(methyl)amino)cyclohexane-1-carboxylic acid], the EC50 stood at 0.112 µM and the Emax amounted to 63%.

Regarding `COc1nc(-c2cccc(-c3cccc(Nc4nc(C(F)F)nc5cc(CN6CC[C@H]([C@H](C)O)C6)cnc45)c3C)c2Cl)cnc1CN(C)[C@H]1CC[C@H](C(=O)O)CC1` [Example 45, (1r,4r)-4-(((5-(2-chloro-3′-((2-(difluoromethyl)-7-(((S)-3-((S)-1-hydroxyethyl)pyrrolidin-1-yl)methyl)pyrido[3,2-d]pyrimidin-4-yl)amino)-2′-methyl-[1,1′-biphenyl]-3-yl)-3-methoxypyrazin-2-yl)methyl)(methyl)amino)cyclohexane-1-carboxylic acid], the EC50 came out at 0.0947 µM and the Emax is 87.3%.

For the compound `COc1nc(-c2cccc(-c3cccc(Nc4nc(C(F)F)nc5cc(CN6CC(OC)C6)cnc45)c3C)c2Cl)cnc1CN(C)[C@H]1CC[C@H](C(=O)O)CC1` [Example 18, (1r,4r)-4-(((5-(2-chloro-3′-((2-(difluoromethyl)-7-((3-methoxyazetidin-1-yl)methyl)pyrido[3,2-d]pyrimidin-4-yl)amino)-2′-methyl-[1,1′-biphenyl]-3-yl)-3-methoxypyrazin-2-yl)methyl)(methyl)amino)cyclohexane-1-carboxylic acid], the EC50 was determined as 0.0711 µM and the Emax was determined as 68%.
